Data: patent US11691971B2, “Naphthyridinone compounds as JAK2 V617F inhibitors” (Incyte Corporation, priority 2020, dated 2023)
Where a name gives a salt, the structure may show the parent alone.

Legend:
[1] = molecular target: catalytic domain (JH1, amino acids 826-1132) of human JAK2 (Homo sapiens (Human), UniProt O60674); assay: JAK2 LanthaScreen JH1 Binding Assay; conditions: JAK2 JH1 1.5 nM, 50 nM tracer, 2 hours at 25° C.; read-out: JH1BIND IC50
Experimental: Example A. JAK2 LanthaScreen JH1 Binding Assay
(§1) JAK2 JH1 binding assay utilizes catalytic domain (JH1, amino acids 826-1132) of human JAK2 expressed as N-terminal FLAG-tagged, biotinylated protein in a baculovirus expression system (Carna Biosciences, Product #08-445-20N). The assay was conducted in black 384-well polystyrene plates in a final reaction volume of 20 μL. JAK2 JH1 (1.5 nM) was incubated with compounds (100 nL serially diluted in DMSO) in the presence of 50 nM fluorescent JAK2-JH1 tracer and 0.5 nM Streptavidin-Tb cryptate (Cisbio Part #610SATLB) in assay buffer (50 mM Tris, pH=7.5, 10 mM MgCl2, 0.01% Brij-35, 0.1% BSA, 1 mM EGTA, 5% Glycerol and 5 mM DTT). Non-specific binding was accessed in the presence of 2 mM ATP. After incubation for 2 hours at 25° C., LanthaScreen signals were read on a PHERAstar FS plate reader (BMG LABTECH). Data was analyzed with IDBS XLfit and GraphPad Prism 5.0 software using a four parameter dose response curve to determine IC50 for each compound.

[2] = molecular target: pseudo-kinase domain (JH2) of human Wild Type JAK2 (Homo sapiens (Human), UniProt O60674, F794H/W659A/W777A); assay: JAK2 LanthaScreen JH2-WT Binding Assay; conditions: JAK2 JH2-WT 0.145 nM, 50 nM tracer, 1 hour at 25° C.; read-out: JH2BIND_WT IC50
Chain of pseudo-kinase domain (JH2) of human Wild Type JAK2 (O60674 536-812 W659A/W777A/F794H): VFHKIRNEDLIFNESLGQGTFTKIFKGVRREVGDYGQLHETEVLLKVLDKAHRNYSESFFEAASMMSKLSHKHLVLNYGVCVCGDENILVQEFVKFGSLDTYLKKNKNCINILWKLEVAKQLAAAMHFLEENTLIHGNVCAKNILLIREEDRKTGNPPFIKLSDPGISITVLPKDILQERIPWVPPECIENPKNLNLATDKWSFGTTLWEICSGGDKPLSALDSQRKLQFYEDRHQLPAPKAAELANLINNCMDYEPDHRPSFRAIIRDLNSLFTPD
Experimental: Example B. JAK2 LanthaScreen JH2-WT Binding Assay
as §1, with “The” for “JAK2 JH1 binding assay utilizes catalytic domain (JH1, amino acids 826-1132) of human JAK2 expressed as N-terminal FLAG-tagged, biotinylated protein in a baculovirus expression system (Carna Biosciences, Product #08-445-20N). The”, “JH2-WT (0.145” for “JH1 (1.5”, “Fluorescent JAK2-JH2 Tracer (MedChem Express Catalog #HY-102055)” for “fluorescent JAK2-JH1 tracer”, “0.25” for “0.5”, “1 hour” for “2 hours”

[3] = molecular target: pseudo-kinase domain (JH2) of human V617F mutant JAK2 (Homo sapiens (Human), UniProt O60674, F794H/V617F/W659A/W777A); assay: JAK2 LanthaScreen JH2-V617F Binding Assay; conditions: JAK2 JH2-V617F 0.26 nM, 50 nM tracer, 1 hour at 25° C.; read-out: JH2BINDING_V617F IC50
Chain of pseudo-kinase domain (JH2) of human V617F mutant JAK2 (O60674 536-812 V617F/W659A/W777A/F794H): as the sequence (O60674 536-812 W659A/W777A/F794H) above, with V82F counted along it
Experimental: The assay was conducted in black 384-well polystyrene plates in a final reaction volume of 20 μL. […] Non-specific binding was accessed in the presence of 2 mM ATP. After incubation for 1 hour at 25° C., LanthaScreen signals were read on a PHERAstar FS plate reader (BMG LABTECH). Data was analyzed with IDBS XLfit and GraphPad Prism 5.0 software using a four parameter dose response curve to determine IC50 for each compound.

[4] = molecular target: catalytic domain (JH1, amino acids 808-1132) of human JAK2 (Homo sapiens (Human), UniProt O60674); assay: JAK2 HTRF Enzyme Activity Assay; type: biochemical; conditions: ATP 30 μM, 60 minutes at 25° C.; read-out: ENZ 30UMATP IC50
Chain of catalytic domain (JH1, amino acids 808-1132) of human JAK2 (O60674 808-1132): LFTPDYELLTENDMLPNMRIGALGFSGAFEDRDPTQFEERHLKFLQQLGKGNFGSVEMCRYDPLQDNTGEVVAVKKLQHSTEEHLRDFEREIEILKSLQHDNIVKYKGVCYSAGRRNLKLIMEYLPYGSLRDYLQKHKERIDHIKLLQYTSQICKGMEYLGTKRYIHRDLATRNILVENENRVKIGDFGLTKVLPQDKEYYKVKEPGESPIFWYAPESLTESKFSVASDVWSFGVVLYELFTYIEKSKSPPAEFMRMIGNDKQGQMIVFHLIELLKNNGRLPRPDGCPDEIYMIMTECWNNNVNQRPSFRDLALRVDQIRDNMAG
Experimental: Example D. JAK2 HTRF Enzyme Activity Assay
JAK2 enzyme activity assays utilize catalytic domain (JH1, amino acids 808-1132) of human JAK2 expressed as N-terminal His-tagged protein in a baculovirus expression system (BPS Bioscience, Catalog #40450). The assays was conducted in black 384-well polystyrene plates in a final reaction volume of 20 μL. JAK2 (0.015 nM) was incubated with compounds (100 nL serially diluted in DMSO) in the presence of ATP (30 μM or 1 mM) and 500 nM Biotin-labeled […] (SEQ ID NO.: 1) peptide (BioSource International, custom synthesis) in assay buffer (50 mM Tris, pH=7.5, 10 mM MgCl2, 0.01% Brij-35, 0.1% BSA, 1 mM EGTA, 5% Glycerol and 5 mM DTT) for 60 minutes at 25° C. The reactions were stopped by the addition of 10 μL of detection buffer (50 mM Tris, pH 7.8, 0.5 mg/mL BSA, 150 mM NaCl), supplemented with EDTA, LANCE Eu-W1024 anti-phosphotyrosine (PY20), (PerkinElmer, Catalog #AD0067) and Streptavidin SureLight APC (PerkinElmer Catalog #CR130-100), for a final concentration of 15 mM, 1.5 nM and 75 nM, respectively. HTRF signals were read after 30 minutes incubation at room temperature on a PHERAstar FS plate reader (BMG LABTECH). Data was analyzed with IDBS XLfit and GraphPad Prism 5.0 software using a four parameter dose response curve to determine IC50 for each compound.

Chain of catalytic domain (JH1, amino acids 826-1132) of human JAK2 (O60674 826-1132): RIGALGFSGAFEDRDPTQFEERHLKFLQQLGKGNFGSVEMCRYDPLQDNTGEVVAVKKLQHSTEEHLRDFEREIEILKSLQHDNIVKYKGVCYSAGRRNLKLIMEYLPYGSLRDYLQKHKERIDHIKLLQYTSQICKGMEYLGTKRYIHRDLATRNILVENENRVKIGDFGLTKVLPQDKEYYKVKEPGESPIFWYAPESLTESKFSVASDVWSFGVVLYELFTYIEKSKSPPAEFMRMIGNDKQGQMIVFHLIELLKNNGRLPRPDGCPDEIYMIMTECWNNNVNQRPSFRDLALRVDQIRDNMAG

Row | SMILES | IC50 [1] | IC50 [2] | IC50 [3] | IC50 [4]
1 | COc1c(Nc2cc(NC(=O)C3CC3)nc3ccn(C)c(=O)c23)cccc1-c1cnc(C2CCOCC2)s1 [Example 10, N-(4-((2-Methoxy-3-(2-(tetrahydro-2H-pyran-4-yl)thiazol-5-yl)phenyl)amino)-6-methyl-5-oxo-5,6-dihydro-1,6-naphthyridin-2-yl)cyclopropanecarboxamide Trifluoroacetic Acid Salt] | > 10 µM | 1 to 10 µM | 1 to 10 µM | > 10 µM
2 | COc1c(Nc2cc(NC(=O)C3CC3)nc3cc[nH]c(=O)c23)cccc1C(=O)NCC1CCOCC1 [Example 11, 3-((2-(Cyclopropanecarboxamido)-5-oxo-5,6-dihydro-1,6-naphthyridin-4-yl)amino)-2-methoxy-N-((tetrahydro-2H-pyran-4-yl)methyl)benzamide Trifluoroacetic Acid Salt] | > 10 µM | 1 to 10 µM | 1 to 10 µM | > 10 µM
3 | CSc1c(Nc2cc(NC(=O)C3CC3)nc3cc[nH]c(=O)c23)cccc1-c1cnn(C2CCOCC2)c1 [Example 12, N-(4-((2-(Methylthio)-3-(1-(tetrahydro-2H-pyran-4-yl)-1H-pyrazol-4-yl)phenyl)amino)-5-oxo-5,6-dihydro-1,6-naphthyridin-2-yl)cyclopropanecarboxamide Trifluoroacetic Acid Salt] | > 10 µM | 0.5 to 1 µM | 0.5 to 1 µM | > 10 µM
4 | CS(=O)(=O)c1c(Nc2cc(NC(=O)C3CC3)nc3cc[nH]c(=O)c23)cccc1-c1cnn(C2CCOCC2)c1 [Example 13, N-(4-((2-(Methylsulfonyl)-3-(1-(tetrahydro-2H-pyran-4-yl)-1H-pyrazol-4-yl)phenyl)amino)-5-oxo-5,6-dihydro-1,6-naphthyridin-2-yl)cyclopropanecarboxamide Trifluoroacetic Acid Salt] | > 10 µM | 1 to 10 µM | 1 to 10 µM | > 10 µM
5 | COc1c(Nc2cc(NC(=O)C3CC3)nc3cc[nH]c(=O)c23)cccc1C(F)(F)F [Example 14, N-(4-((2-Methoxy-3-(trifluoromethyl)phenyl)amino)-5-oxo-5,6-dihydro-1,6-naphthyridin-2-yl)cyclopropanecarboxamide Trifluoroacetic Acid Salt] | > 10 µM | 0.1 to 0.5 µM | 0.1 to 0.5 µM | > 10 µM
6 | O=C(Nc1cc(Nc2cccc(Cl)c2-c2cn[nH]c2)c2c(=O)[nH]ccc2n1)C1CC1 [Example 16, N-(4-((3-Chloro-2-(1H-pyrazol-4-yl)phenyl)amino)-5-oxo-5,6-dihydro-1,6-naphthyridin-2-yl)cyclopropanecarboxamide Trifluoroacetic Acid Salt] | 1 to 10 µM | 0.5 to 1 µM | 0.5 to 1 µM | 1 to 10 µM
7 | Cc1[nH]ncc1-c1c(Cl)cccc1Nc1cc(NC(=O)C2CC2)nc2cc[nH]c(=O)c12 [Example 17, N-(4-((3-Chloro-2-(5-methyl-1H-pyrazol-4-yl)phenyl)amino)-5-oxo-5,6-dihydro-1,6-naphthyridin-2-yl)cyclopropanecarboxamide Trifluoroacetic Acid Salt] | 1 to 10 µM | 0.5 to 1 µM | 1 to 10 µM | 1 to 10 µM
8 | O=C(Nc1cc(Nc2cccc(C(F)(F)F)c2-c2cn[nH]c2)c2c(=O)[nH]ccc2n1)C1CC1 [Example 18, N-(4-((2-(1H-pyrazol-4-yl)-3-(trifluoromethyl)phenyl)amino)-5-oxo-5,6-dihydro-1,6-naphthyridin-2-yl)cyclopropanecarboxamide Trifluoroacetic Acid Salt] | > 10 µM | 0.5 to 1 µM | 0.5 to 1 µM | > 10 µM
9 | Cc1[nH]ncc1-c1c(Nc2cc(NC(=O)C3CC3)nc3cc[nH]c(=O)c23)cccc1C(F)(F)F [Example 19, N-(4-((2-(5-Methyl-1H-pyrazol-4-yl)-3-(trifluoromethyl)phenyl)amino)-5-oxo-5,6-dihydro-1,6-naphthyridin-2-yl)cyclopropanecarboxamide Trifluoroacetic Acid Salt] | > 10 µM | 1 to 10 µM | 1 to 10 µM | > 10 µM
10 | O=C(Nc1cc(Nc2ccccc2OC(F)F)c2c(=O)[nH]ccc2n1)C1CC1 [Example 20, N-(4-((2-(Difluoromethoxy)phenyl)amino)-5-oxo-5,6-dihydro-1,6-naphthyridin-2-yl)cyclopropanecarboxamide Trifluoroacetic Acid Salt] | 1 to 10 µM | 1 to 10 µM | 1 to 10 µM | 1 to 10 µM
11 | COc1ccccc1Nc1cc(NC(=O)C2CC2)nc2cc[nH]c(=O)c12 [Example 21, N-(4-((2-Methoxyphenyl)amino)-5-oxo-5,6-dihydro-1,6-naphthyridin-2-yl)cyclopropanecarboxamide] | 1 to 10 µM | 1 to 10 µM | > 10 µM | 1 to 10 µM
12 | CNc1ccccc1Nc1cc(NC(=O)C2CC2)nc2cc[nH]c(=O)c12 [Example 22, N-(4-((2-(Methylamino)phenyl)amino)-5-oxo-5,6-dihydro-1,6-naphthyridin-2-yl)cyclopropanecarboxamide Trifluoroacetic Acid Salt] | > 10 µM | > 10 µM | > 10 µM | > 10 µM
13 | O=C(Nc1cc(Nc2ccccc2CO)c2c(=O)[nH]ccc2n1)C1CC1 [Example 23, N-(4-((2-(Hydroxymethyl)phenyl)amino)-5-oxo-5,6-dihydro-1,6-naphthyridin-2-yl)cyclopropanecarboxamide Trifluoroacetic Acid Salt] | 1 to 10 µM | 1 to 10 µM | > 10 µM | 1 to 10 µM
14 | O=C(Nc1cc(Nc2ccccc2OC2CC2)c2c(=O)[nH]ccc2n1)C1CC1 [Example 24, N-(4-((2-Cyclopropoxyphenyl)amino)-5-oxo-5,6-dihydro-1,6-naphthyridin-2-yl)cyclopropanecarboxamide Trifluoroacetic Acid Salt] | 1 to 10 µM | 1 to 10 µM | 1 to 10 µM | 0.5 to 1 µM
